Usually IC50 stands for the midpoint of a concentration-inhibition curve.

In this experiment the target is human recombinant LRRK2 protein (Homo sapiens (Human), UniProt Q5S007). Put plainly: LRRK2 Kinase Activity Assay (ADP-Glo). In kind it is biochemical. The conditions noted are these: LRRK2 wt; LRRKtide peptide and ATP substrates; 1h-incubation at 37° C. On the procedure: LRRK2 Kinase reactions were carried out in 384-well white polystyrene plates in a final volume of 6 μl using ADP-Glo™ Kinase Assay kit (Promega Corp.). Compound and substrates (LRRKtide peptide and ATP) in assay buffer were first dispensed in wells. Kinase reaction was then started by the addition of human recombinant LRRK2 protein. After 1h-incubation at 37° C., the enzymatic reaction was stopped by the addition of 6 μl of ADP-Glo Reagent-1 and an additional 40-minutes incubation at 23° C. (residual ATP depletion). A final 30-minutes incubation after 12 μL reagent-2 addition (ADP to ATP conversion and luciferin/luciferase reaction) was performed before luminescent signal acquisition (EnVision™ multimode plate reader-PerkinElmer, Inc.). Data from 10 individual concentrations of tested compounds (N=2) were fitted (XLfit™-ID Business Solutions Ltd) to deliver IC50s (compound concentration leading to 50% inhibition of reference enzymatic activity).
Chain of human recombinant LRRK2 protein (Q5S007 whole entry): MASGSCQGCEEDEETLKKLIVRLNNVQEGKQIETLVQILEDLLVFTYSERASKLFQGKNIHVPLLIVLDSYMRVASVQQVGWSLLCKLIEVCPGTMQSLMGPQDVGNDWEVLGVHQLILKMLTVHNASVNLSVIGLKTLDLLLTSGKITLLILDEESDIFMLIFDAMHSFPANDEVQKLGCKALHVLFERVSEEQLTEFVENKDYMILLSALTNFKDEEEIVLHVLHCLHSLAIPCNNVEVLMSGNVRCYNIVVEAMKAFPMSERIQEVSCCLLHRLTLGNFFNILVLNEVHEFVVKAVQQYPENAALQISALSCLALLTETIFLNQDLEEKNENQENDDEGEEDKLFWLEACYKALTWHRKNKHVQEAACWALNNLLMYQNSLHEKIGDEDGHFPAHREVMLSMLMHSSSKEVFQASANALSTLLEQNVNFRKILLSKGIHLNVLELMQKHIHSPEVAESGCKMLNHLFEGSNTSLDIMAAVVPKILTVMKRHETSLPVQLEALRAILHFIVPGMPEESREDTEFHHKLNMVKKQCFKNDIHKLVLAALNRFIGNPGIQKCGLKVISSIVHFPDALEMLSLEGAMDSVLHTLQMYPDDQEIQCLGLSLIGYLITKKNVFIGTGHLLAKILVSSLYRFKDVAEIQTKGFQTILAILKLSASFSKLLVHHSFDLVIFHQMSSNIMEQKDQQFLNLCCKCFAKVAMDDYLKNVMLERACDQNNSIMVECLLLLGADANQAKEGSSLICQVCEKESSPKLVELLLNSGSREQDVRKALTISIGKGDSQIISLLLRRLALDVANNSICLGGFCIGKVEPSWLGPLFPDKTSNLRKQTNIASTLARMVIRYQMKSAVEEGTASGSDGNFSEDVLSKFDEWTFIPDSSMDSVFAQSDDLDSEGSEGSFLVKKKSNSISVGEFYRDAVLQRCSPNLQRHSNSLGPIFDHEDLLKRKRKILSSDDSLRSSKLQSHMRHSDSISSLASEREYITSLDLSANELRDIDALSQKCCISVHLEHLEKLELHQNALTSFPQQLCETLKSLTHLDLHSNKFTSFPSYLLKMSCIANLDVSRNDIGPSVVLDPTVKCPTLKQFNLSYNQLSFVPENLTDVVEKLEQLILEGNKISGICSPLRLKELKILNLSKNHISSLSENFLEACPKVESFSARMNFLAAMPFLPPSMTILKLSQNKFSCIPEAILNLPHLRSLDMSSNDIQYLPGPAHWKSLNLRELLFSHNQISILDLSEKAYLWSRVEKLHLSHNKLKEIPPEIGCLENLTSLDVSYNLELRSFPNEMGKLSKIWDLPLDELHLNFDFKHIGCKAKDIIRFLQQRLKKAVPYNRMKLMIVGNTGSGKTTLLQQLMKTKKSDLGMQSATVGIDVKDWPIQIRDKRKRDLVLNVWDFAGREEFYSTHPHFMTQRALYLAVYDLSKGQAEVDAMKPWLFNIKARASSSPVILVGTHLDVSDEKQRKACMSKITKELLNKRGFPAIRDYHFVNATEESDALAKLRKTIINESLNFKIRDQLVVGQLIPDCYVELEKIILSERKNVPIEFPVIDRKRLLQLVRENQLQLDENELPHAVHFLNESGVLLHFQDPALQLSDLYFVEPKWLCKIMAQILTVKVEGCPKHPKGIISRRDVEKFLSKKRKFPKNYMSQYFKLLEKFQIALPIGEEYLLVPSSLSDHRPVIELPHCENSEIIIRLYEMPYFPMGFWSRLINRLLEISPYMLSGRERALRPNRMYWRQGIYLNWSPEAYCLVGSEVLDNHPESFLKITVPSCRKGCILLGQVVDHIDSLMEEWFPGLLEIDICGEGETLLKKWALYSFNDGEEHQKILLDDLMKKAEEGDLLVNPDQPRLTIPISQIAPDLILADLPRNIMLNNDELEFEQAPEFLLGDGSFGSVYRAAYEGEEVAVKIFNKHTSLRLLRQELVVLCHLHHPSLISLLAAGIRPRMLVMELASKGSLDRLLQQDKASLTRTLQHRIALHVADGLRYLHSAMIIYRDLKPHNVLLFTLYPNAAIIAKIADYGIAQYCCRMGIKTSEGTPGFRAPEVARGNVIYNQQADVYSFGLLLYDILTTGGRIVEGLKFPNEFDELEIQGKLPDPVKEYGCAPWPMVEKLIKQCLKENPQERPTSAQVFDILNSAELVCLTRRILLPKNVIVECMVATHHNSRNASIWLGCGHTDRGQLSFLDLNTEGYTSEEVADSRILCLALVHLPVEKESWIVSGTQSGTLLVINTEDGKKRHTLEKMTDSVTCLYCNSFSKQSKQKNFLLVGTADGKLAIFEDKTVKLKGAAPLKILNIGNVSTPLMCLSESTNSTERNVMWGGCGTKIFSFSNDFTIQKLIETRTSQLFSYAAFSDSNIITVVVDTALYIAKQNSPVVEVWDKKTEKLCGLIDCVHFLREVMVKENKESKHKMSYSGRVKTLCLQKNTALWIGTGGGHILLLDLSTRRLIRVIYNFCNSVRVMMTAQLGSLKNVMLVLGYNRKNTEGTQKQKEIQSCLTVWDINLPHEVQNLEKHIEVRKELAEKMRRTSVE
The compounds are dissolved to 5 mM in DMSO. When needed, solutions are sonicated in a bath sonicator.
Table 2 provides the IC50 values of the compounds according to the invention, obtained using the above-mentioned kinase assay. Activities are represented as +++, ++ and +, having the following meanings: • +++ means IC50<10 nM • ++ means 10 nM≤IC50<100 nM • + means 100 nM≤IC50<1 μM.
(In general: In ADP-Glo the light output rises with the ADP produced.)
Regarding `O=C1NCCCOc2ccc3[nH]nc(c3c2)-c2cnn(c2)C(C2CCOCC2)CO1` (stereo not shown) [Example 118, 6-(oxan-4-yl)-8,14-dioxa-4,5,10,19,20-pentaazatetracyclo[13.5.2.1^2,5.0^18,21]tricosa-1(20),2(23),3,15,17,21-hexaen-9-one], the IC50 was 100 to 1000 nM.
Under `CCC1OC(=O)NCCCOc2ccc3[nH]nc(c3c2)-c2cccc1c2` (single isomer, unassigned) [Example 115, (7R)- or (7S)-7-ethyl-8,14-dioxa-10,19,20-triazatetracyclo[13.5.2.1^2,6.0^18,21]tricosa-1(20),2,4,6(23),15,17,21-heptaen-9-one] stands 100 to 1000 nM.
The same measure for `CC1Cn2cc(cn2)-c2n[nH]c3ccc(cc23)O[C@H](C)CCNC(=O)O1` (stereo partly drawn) [Example 113, (13R)-7,13-dimethyl-8,14-dioxa-4,5,10,19,20-pentaazatetracyclo[13.5.2.1^2,5.0^18,21]tricosa-1(20),2(23),3,15(22),16,18(21)-hexaen-9-one]: under 10 nM; for `O=C1NC[C@@H](F)COc2ccc3[nH]nc(c3c2)-c2cncc(n2)CO1` [Example 172, (12R)-12-fluoro-8,14-dioxa-4,10,19,20,23-pentaazatetracyclo[13.5.2.1^2,6.0^18,21]tricosa-1(20),2(23),3,5,15,17,21-heptaen-9-one]: under 10 nM.
For `CN1CCCNC(=O)OCc2cccc(c2)-c2n[nH]c3ccc1cc23` [Example 163, 14-methyl-8-oxa-10,14,19,20-tetraazatetracyclo[13.5.2.1^2,6.0^18,21]tricosa-1(20),2(23),3,5,15,17,21-heptaen-9-one], the IC50 was under 10 nM.
The same measure for `CC1COC(=O)NCCCOc2ccc3[nH]nc(c3c2)-c2cnn1c2` (stereo not shown) [Example 110, 6-methyl-8,14-dioxa-4,5,10,19,20-pentaazatetracyclo[13.5.2.1^2,5.0^18,21]tricosa-1(20),2(23),3,15,17,21-hexaen-9-one]: under 10 nM.
The same measure for `O=C1OCc2cncc(c2)-c2n[nH]c3ccc(cc23)OCC2CCN1C2` (stereo not shown) [Example 98, 8,15-dioxa-4,10,20,21-tetraazapentacyclo[14.5.2.1^2,6.1^10,13.0^19,22]pentacosa-1(21),2(25),3,5,16(23),17,19(22)-heptaen-9-one]: under 10 nM.
Turning to `O=C1NCCCOc2ccc3[nH]nc(c3c2)-c2cc(cc(N3CCCC3=O)c2)CO1` [Example 74, 4-(2-oxopyrrolidin-1-yl)-8,14-dioxa-10,19,20-triazatetracyclo[13.5.2. 1^2,6.0^18,21]tricosa-1(20),2(23),3,5,15(22),16,18(21)-heptaen-9-one], the IC50 was under 10 nM.
Under `O=C1NCCCOc2ccc3[nH]nc(c3c2)-c2cc(cc(C3=CCNCC3)c2)CO1` [Example 82, 4-(1,2,3,6-tetrahydropyridin-4-yl)-8,14-dioxa-10,19,20-triazatetracyclo[13.5.2.1^2,6.0^18,21]tricosa-1(20),2(23),3,5,15(22),16,18(21)-heptaen-9-one] stands under 10 nM; under `O=C1NCCCOc2ccc3[nH]nc(c3c2)-n2cnc(c2)CCO1` [Example 126, 8,14-dioxa-2,4,10,19,20-pentaazatetracyclo[13.5.2.1^2,5.0^18,21]tricosa-1(20),3,5(23),15(22),16,18(21)-hexaen-9-one], 10 to 100 nM.
Under `Cc1ccc2cc1COC(=O)NCCCOc1ccc3[nH]nc-2c3c1` [Example 11, 5-methyl-8,14-dioxa-10,19,20-triazatetracyclo[13.5.2.1^2,6.0^18,21]tricosa-1(20),2,4,6(23),15,17,21-heptaen-9-one] stands under 10 nM; under `O=C1NCCCOc2ccc3[nH]nc(c3c2)-c2cc(cc(N3CCC3)c2)CO1` [Example 35, 4-(azetidin-1-yl)-8,14-dioxa-10,19,20-triazatetracyclo[13.5.2.1^2,6.0^18,21]tricosa-1(20),2,4,6(23),15,17,21-heptaen-9-one], under 10 nM.
The same measure for `COc1cc2cc(c1)-c1n[nH]c3ccc(cc13)OCCCNC(=O)OC2` [Example 8, 4-methoxy-8,14-dioxa-10,19,20-triazatetracyclo[13.5.2.1^2,6.0^18,21]tricosa-1(20),2,4,6(23),15,17,21-heptaen-9-one]: under 10 nM.
Take `O=C1NCCCOc2ccc3[nH]nc(c3c2)-c2ccnc(c2)CO1` [Example 7, 8,14-dioxa-5,10,19,20-tetraazatetracyclo[13.5.2.1^2,6.0^18,21]tricosa-1(20),2,4, 6(23),15,17,21-heptaen-9-one]: the half-inhibitory concentration (IC50) is under 10 nM.
Under `C[C@@H]1CCNC(=O)OCc2nc(cc(N3CCCC3)n2)-c2n[nH]c3ccc(cc23)O1` [Example 129, (13R)-13-methyl-4-(pyrrolidin-1-yl)-8,14-dioxa-5,10,19,20,23-pentaaza tetracyclo[13.5.2.1^2,6.0^18,21]tricosa-1(20),2,4,6(23),15,17,21-heptaen-9-one] stands under 10 nM; under `CC1CCOc2ccc3[nH]nc(c3c2)-c2cnn(c2)CCOC(=O)N1` (stereo not shown) [Example 85, 11-methyl-8,14-dioxa-4,5,10,19,20-pentaazatetracyclo[13.5.2.1^2,5.0^18,21]tricosa-1(20),2(23),3,15(22),16,18(21)-hexaen-9-one], 10 to 100 nM; under `C[C@H]1CCNC(=O)OCc2cncc(n2)-c2n[nH]c3ccc(cc23)O1` [Example 156, (13S)-13-methyl-8,14-dioxa-4,10,19,20,23-pentaazatetracyclo[13.5.2. 1^2,6.0^18,21]tricosa-1(20),2(23),3,5,15(22),16,18(21)-heptaen-9-one], under 10 nM.
Under `CN1CCN(c2cc3cc(c2)-c2n[nH]c4ccc(cc24)OCCCNC(=O)OC3)CC1` [Example 31, 4-(4-methylpiperazin-1-yl)-8,14-dioxa-10,19,20-triazatetracyclo[13.5.2.1^2,6.0^18,21]tricosa-1(20),2,4,6(23),15,17,21-heptaen-9-one] stands under 10 nM; under `C[C@H]1OC(=O)NCCCOc2ccc3[nH]nc(c3c2)-c2cc(F)cc1c2` (single isomer, unassigned) [Example 109, (7R)- or (7S)-4-fluoro-7-methyl-8,14-dioxa-10,19,20-triazatetracyclo[13.5.2.1^2,6.0^18,21]tricosa-1(20),2,4,6(23),15,17,21-heptaen-9-one], under 10 nM; under `C[C@@H]1CCNC(=O)O[C@H](C)c2cncc(n2)-c2n[nH]c3ccc(cc23)O1` [Example 155, (7R,13R)-7,13-dimethyl-8,14-dioxa-4,10,19,20,23-pentaazatetracyclo[13.5. 2.1^2,6.0^18,21]tricosa-1(20),2(23),3,5,15(22),16,18(21)-heptaen-9-one], under 10 nM.
Under `Cc1cc2cc(c1)-c1n[nH]c3ccc(cc13)OCCCNC(=O)OC2` [Example 18, 4-methyl-8,14-dioxa-10,19,20-triazatetracyclo[13.5.2.1^2,6.0^18,21]tricosa-1(20),2,4,6(23),15,17,21-heptaen-9-one] stands under 10 nM.
`COCC1CCOc2ccc3[nH]nc(c3c2)-c2cccc(c2)COC(=O)N1` (stereo not shown) [Example 83, 11-(methoxymethyl)-8,14-dioxa-10,19,20-triazatetracyclo[13.5.2.1^2,6.0^18,21]tricosa-1(20),2(23),3,5,15(22),16,18(21)-heptaen-9-one]: the IC50 was under 10 nM.
